The values that follow come from patent publication US10940139B2, “Compounds that interact with the Ras superfamily for the treatment of cancers, inflammatory diseases, rasopathies, and fibrotic disease” (Shy Therapeutics LLC, priority 2017, dated 2021).

Usually inhibition stands for how much of the control response was suppressed. A lower inhibition goes with a weak effect.

In the test the test system is MIA-PACA2 pancreatic cancer cell lines. Description: Cell proliferation assay (CellTiter 96 AQueous One). Type of test: cell-based. The following applies: Homo sapiens, MIA PaCa-2; at 30 μM, MIA-PACA2.
With `COc1cn(-c2ccccc2)nc1C(=O)Nc1nnc(-c2ccccn2)[nH]1` [drawing 1466], the inhibition at 30 µM fell in the range of 51 to 75%.

`OCCn1ccc2c1CCCC2Nc1nc(-c2ccccn2)nc2scc(-c3ccccc3)c12` (stereo not shown) yielded an inhibition at 30 µM of 76 to 100%.

With `Oc1nc(-c2ccccn2)nc2c(-c3ccc4c(c3)OCO4)csc12` [drawing 1755], the inhibition at 30 µM was 76 to 100%.

The compound `COCCCCNC(=O)c1csc2nc(-c3ccccn3)nc(N(CCOC)CCOC)c12` [drawing 1686] registered an inhibition at 30 µM of 76 to 100%.

Compound `Cc1sc2c(N)nc(-c3ccccn3)nc2c1Br` [drawing 1769] registered an inhibition at 30 µM of 76 to 100%.

For `N#Cc1cccc(OCC(=O)Nc2nnc(-c3ccccn3)[nH]2)c1` [drawing 1435], the inhibition at 30 µM fell in the range of 25 to 50%.

In turn, `N#Cc1ccc(CCNC(=O)c2csc3nc(-c4ccccn4)nc(N4CCOCC4)c23)cc1` [drawing 1644] returned an inhibition at 30 µM of 25 to 50%.

Take `COc1ccccc1C1CN(C(=O)c2csc3c(O)nc(-c4ccccn4)nc23)CCN1` (stereo not shown) [drawing 1665]: the inhibition at 30 µM lay in the range of 76 to 100%.

Compound `O=C1CN(c2nc(-c3ccccn3)nc3scc(-c4ccccc4)c23)CCN1CCO` [drawing 1594] returned an inhibition at 30 µM of 51 to 75%.

The compound `O=C(Nc1nnc(-c2ccccn2)[nH]1)c1ccc2c(c1)CCO2` [drawing 1386] returned an inhibition at 30 µM of 76 to 100%.

Take `O=C(c1csc2c(O)nc(-c3ccccn3)nc12)N1CCOC(CN2CCOCC2)C1` (stereo not shown) [drawing 1698]: the inhibition at 30 µM was in the range of 51 to 75%.

In turn, `COc1ccc(CN(CC[S+]([O-])c2cc(Cl)ccc2Cl)C2CC2)cc1` (stereo not shown) [drawing 1530] registered an inhibition at 30 µM of 51 to 75%.

As to `OC1CCCN(c2nc(-c3ccccn3)nc3scc(-c4ccccc4)c23)C1` (stereo not shown) [drawing 1617], the inhibition at 30 µM fell in the range of 76 to 100%.

Take `Cc1sc2c(N)nc(-c3ccccn3)nc2c1-c1ccccc1` [drawing 1713]: the inhibition at 30 µM is 76 to 100%.

`CNC(=O)c1sc2[nH]c(-c3ccccn3)nc(=O)c2c1C` [drawing 1491]: the inhibition at 30 µM was in the range of 51 to 75%.

In turn, `O=C(CN1CCN(c2nc(-c3ccccn3)nc3scc(-c4ccccc4)c23)CC1)NC1CC1` [drawing 1621] had an inhibition at 30 µM of 76 to 100%.

`O=C1CN(c2nc(-c3ccccn3)nc3scc(-c4ccccc4)c23)CCN1` [drawing 1593] had an inhibition at 30 µM of 1 to 25%.

Turning to `O=C(c1csc2c(O)nc(-c3ccccn3)nc12)N1CC2CC1CN2c1ccccc1` (stereo not shown) [drawing 1714], the inhibition at 30 µM was in the range of 76 to 100%.

For the compound `O=C(NCCc1cccnc1)c1csc2nc(-c3ccccn3)nc(N3CCOCC3)c12` [drawing 1638], the inhibition at 30 µM lay within 76 to 100%.

In turn, `Cc1cc(C(=O)Nc2nc(-c3ccccn3)cs2)no1` [drawing 1475] returned an inhibition at 30 µM of 76 to 100%.

For the compound `COc1cc(CNc2nc(-c3ccccn3)nc3scc(-c4ccccc4)c23)ccc1OCC(N)=O`, the inhibition at 30 µM was 76 to 100%.

`N#Cc1cccc(CCNC(=O)c2csc3nc(-c4ccccn4)nc(N4CCOCC4)c23)c1` [drawing 1680] returned an inhibition at 30 µM of 76 to 100%.

With `Oc1nc(-c2ccccn2)nc2c1ncn2-c1ccccn1` [drawing 1584], the inhibition at 30 µM lay in the range of 76 to 100%.

In turn, `CCc1ccccc1OCC(=O)Nc1nnc(-c2ccccn2)[nH]1` [drawing 1442] yielded an inhibition at 30 µM of 76 to 100%.

For `CC(O)CNc1nc(-c2ccccn2)nc2scc(-c3ccccc3)c12` (stereo not shown) [drawing 1513], the inhibition at 30 µM was 76 to 100%.

`O=C(Nc1nnc(-c2ccccn2)[nH]1)c1cccc(NC(=O)C2CCCO2)c1` (stereo not shown) [drawing 1414] registered an inhibition at 30 µM of 51 to 75%.

The compound `Oc1nc(-c2ccccn2)nc2c(-c3ccc(C4CCC4)cc3)csc12` [drawing 1741] came in with an inhibition at 30 µM of 76 to 100%.

In turn, `Cc1ccc(-c2ccc(Oc3ccc(C(F)(F)F)cn3)c(C)c2)cc1` [drawing 1526] returned an inhibition at 30 µM of 76 to 100%.

Compound `Cc1nc(-c2ccccn2)nc(O)c1CCC(=O)Nc1cc(F)ccc1F` [drawing 1503] returned an inhibition at 30 µM of 76 to 100%.

`Cc1cnc(-c2ccccn2)nc1NC(=O)Cc1ccc2cnccc2c1` [drawing 1732]: the inhibition at 30 µM was 76 to 100%.

In the case of `O=C(Nc1nc(-c2ccccn2)cs1)c1ccncc1` [drawing 1485], the inhibition at 30 µM was in the range of 76 to 100%.
